Measured values as given in ChEMBL document CHEMBL3507680, “University of Dundee, Gates Library screen for HepG2 cell viability”.

Assay: Human HepG2 cell viability assay in 384 well format
Assay type: toxicity, cell-based
Parameters: dose 125 nL, time 70.5 hour; cytotoxicity at 70.5 h: concentration not given beside the values
Details: HepG2 cells, read-out: Inhibition

Structure (SMILES) | cytotoxicity at 70.5 h [%]
Cc1ccc2[nH]c(-c3cn(C4CCNCC4)nn3)nc2c1C | -3.44
CC(=O)N1CCCC2(CN(Cc3ccncc3)CCO2)C1 (stereo not drawn) | -1.7
CN(CC1(O)CCCN(c2ccccn2)C1)C(=O)CCc1cccs1 (stereo not drawn) | -7.41
CCCN1CCN(C(=O)c2cccnc2)CC1 | -14.6
Cc1cc(N(C)C)nc(N2CCn3c(nnc3C3CC3)C2)n1 | 5.46
CCc1cc(N2CCC(NCCc3ccc(C)o3)CC2)nc(C)n1 | -16.4
CCC[C@@H](NC(N)=O)C(=O)N1Cc2ccccc2-c2ccccc2C1 | -2.69
CN1[C@H](Cn2cncn2)C[C@@H]2CN(Cc3ccsc3)CC[C@@H]21 | -3.81
CCCc1cc(N(CCOC)CC(F)F)n2ncnc2n1 | 18.6
CCc1c(C(=O)N2CCN(c3cnccn3)CC2)cnn1C(C)(C)C | 20.7
CN1CCC2(Cc3ccccc3CN(C(=O)CCN)C2)C1 (stereo not drawn) | 27.3
CN(C)CC1CN(C(=O)CCc2ccccc2)Cc2nccn2C1 (stereo not drawn) | 1.84
CN1CCN(Cc2cn3c(n2)CN(C(=O)c2cccn2C)CC3)CC1 | -4.16
Cc1nn(C)c2nc(NC(C)c3nnn[nH]3)sc12 (stereo not drawn) | 11.9
COc1cccc(CNC(=O)c2cc(C)nc(N3CCCC3)n2)c1 | 17.7
CCC1CN(CC(=O)Nc2cc(C)nn2C)CCO1 (stereo not drawn) | -5.03
O=c1[nH]ncn1-c1cccc(C(F)(F)F)c1 | 1.41
O=C(NCc1sc2ccccc2c1Cl)c1cc2n(n1)CCNC2 | 18.3
COc1ccc(Br)cc1SCCC(N)=O | -0.68
CS(=O)(=O)N1CCc2c(cccc2NC(=O)Nc2ccccn2)C1 | 10.3
COc1ccc(N(C)C(=O)C2CN(C)CCO2)cc1Cl (stereo not drawn) | 8.7

Structure (SMILES) | cytotoxicity at 70.5 h [%]
Cn1ccnc1-c1ccc(NCC2COCCO2)nn1 (stereo not drawn) | -5.53
Cc1ncsc1C(=O)N1CCCC(c2cc(C(F)F)n3ncnc3n2)C1 (stereo not drawn) | 0.833
O=C(Cc1ccn[nH]1)Nc1cncc(Br)c1O | -2.7
Cn1ncc2c(=O)[nH]c(CN3CCCC3Cc3ccccc3)nc21 (stereo not drawn) | -13.7
CCOCC(=O)N1C[C@@H](NC(C)=O)[C@H](c2ccc(OC)cc2)C1 | -8.31
CC(C(=O)N(C)Cc1ccc(Br)o1)n1cccn1 (stereo not drawn) | -4.49
Cc1oc(-c2cccc(F)c2F)nc1CN(C)CCC(C)(C)O | 26.5
CCc1cc(NC(=O)N2CCC(Oc3cccnc3)C2)n(C)n1 (stereo not drawn) | -6.65
O=C1CO[C@H]2CN(S(=O)(=O)c3ccccc3)C[C@H]2N1c1ccccc1 | -8.37
CCC(CNC(=O)NCc1cc[nH]n1)N1CCCC1 (stereo not drawn) | -4.31
COc1ccccc1CC(=O)N1CCN(Cc2ccco2)C[C@@H]1C | -2.18
Cc1ccoc1C(=O)NCCOc1ncc(Cl)cc1Cl | -4.36
CNS(=O)(=O)c1ccc(C(=O)N2CCCC2c2ccccc2C)o1 (stereo not drawn) | -1.59
CC(C)(C)n1ncc2c1CCCC2NCc1cccc2c1OCCO2 (stereo not drawn) | -7.2
O=C(O)c1c[nH]c2cc(NS(=O)(=O)c3cc(F)ccc3Cl)ccc12 | -9.41
O=C(NC[C@]1(O)CCN(Cc2ccsc2)C[C@H]1O)c1c[nH]cn1 | -9.1
c1cnc(NC[C@@H]2CCC[C@@H]3CN(Cc4cc[nH]n4)C[C@@H]32)nc1 | -5.11
Cc1ccc(CN2CCC3(CC(=O)N(c4cccc(F)c4)C3)C2)o1 (stereo not drawn) | -17.4
COc1cccc(CN2CC[C@H](NC(C)=O)[C@@H](O)CC2)c1F | -1.47
CC(=O)N1N=C(c2ccccc2)OC1C(=O)NCCc1cccc(F)c1 (stereo not drawn) | 4.79
Cc1cc(C(=O)N2CCCC(n3cncn3)C2)nn1C (stereo not drawn) | -10.8

Structure (SMILES) | cytotoxicity at 70.5 h [%]
CC(C)N[C@@H]1CO[C@H](CNC(=O)c2ccccc2)[C@H]1O | -0.106
N#Cc1cccc(S(=O)(=O)N(CC2CCC2)c2cn[nH]c2)c1 | -8.03
c1cncc(C2COC3(CCN(CC4CC4)CC3)C2)c1 (stereo not drawn) | -0.218
CN1N=C(C(=O)N2CCN(c3ncccn3)CC2)CCC1=O | 1.03
Nc1nc2c(c(NC3CCCC3)n1)CCN(C(=O)C1CCOC1)CC2 (stereo not drawn) | 11.4
COc1ccc2c(c1)C(C(=O)N(C)CCc1scnc1C)CC(=O)N2 (stereo not drawn) | -5.27
O=C(c1cncnc1)N1Cc2ccccc2OC2(CCOCC2)C1 | 2.98
CN(CCCNC(=O)C1CCc2cn[nH]c2C1)c1ccccc1 (stereo not drawn) | -4.99
CN(CCN1CCOCC1)C(=O)CCc1ccc(C(F)(F)F)cc1 | 10.6
Cc1nn(C)c(N2CCOCC2)c1CNCc1cccnc1 | 24.7
Cc1nccn1CCCn1cncc1-c1ccc2c(c1)CCC(C)N2C (stereo not drawn) | -1.7
O=C(CN1CCC(c2ccnn2CCO)CC1)NCc1cccs1 | 18.4
CC(NC(=O)CCC(=O)c1cccs1)c1nnc2n1CCCCC2 (stereo not drawn) | -15.6
CNC(=O)C1(CCCc2ccccn2)CN(Cc2coc(C)n2)C1 | -5.7
CCn1nc2nc(SCC(=O)O)cc(C(F)F)c2c1C | -5.31
Cc1noc(C)c1-c1ccc(C2CCCN2C(=O)c2cccnn2)nc1 (stereo not drawn) | 19.1
O=C(CN1CCS(=O)(=O)CC1)NC1CCOc2ccccc21 (stereo not drawn) | -3.04
CCC(CC)NC(=O)c1cncc(Br)c1 | 1.03
Cc1nnc(C(C)NCC2(c3ccc(Cl)cc3)CCOCC2)o1 (stereo not drawn) | -18.1
CC(C)Cc1noc(CN(C)C[C@]2(O)CCCN3CCCC[C@@H]32)n1 | -12.8
Cc1noc(C(C)C)c1C(=O)NCC1CCN(c2ccccc2)C1 (stereo not drawn) | 6.36

Structure (SMILES) | cytotoxicity at 70.5 h [%]
CC(C)c1nnc2n1CCN(CCC(=O)Nc1sccc1C#N)C2 | -1.15
CCC1=N[C@@]2(CC[C@@H]3CN(Cc4ccc(Cl)cc4)C[C@@H]32)C(=O)N1 | -3.73
CN1CCC(N(C)CCC(=O)N2CCC(Oc3ccc(Cl)cc3)CC2)C1 (stereo not drawn) | -5.97
COCCN(C)C(C(=O)O)c1ccc(C)c(C)c1 (stereo not drawn) | 0.276
CC(C)CN(CC(C)C)Cn1ncc2cn(-c3ccccc3)nc2c1=O | -2.25
Nc1ccnn1C1CCN(Cc2ccccc2)C1 (stereo not drawn) | 2.28
Cc1noc([C@@]23CCO[C@@H]2CCN(C(=O)c2cc(C)[nH]c2C)C3)n1 | -2.6
CCCc1cc(=O)[nH]c2nnc(SCC(=O)NCc3ccc(C)cc3)n12 | -6.16
O=C1COC2(CCN(CC3CC3)CC2)CN1c1ccsc1 | -8.69
CN1CCN(CCNC(=O)C(OC2CCCC2)c2ccccc2)CC1 (stereo not drawn) | 5.3
CCc1noc(CC)c1CC(=O)N1CCN(C(C#N)C(C)C)CC1 (stereo not drawn) | -8.63
NS(=O)(=O)N1CCC(CSc2ccccc2)C1 (stereo not drawn) | -9.2
CC(C)n1cnnc1Cn1c(=O)cnc2ccccc21 | -4.23
Cc1nn(C)cc1Cn1c(=O)c(C)nc2ccccc21 | -6.18
Cc1cnc(N2CCC3(CC2)CC(NC(=O)C(C)C)CO3)nc1 (stereo not drawn) | 11.3
CCN(C(=O)c1ccc2nnc(C3CCN(CCOC)C3)n2c1)C(C)C (stereo not drawn) | -13.6
CCCn1ncnc1C(C)NC(=O)CC1CCN(C(C)C)CC1 (stereo not drawn) | -4.86
CN(CCc1ccccn1)C(=O)Nc1cccnc1-n1cccn1 | -16.2
CC(C)N1CCCC1c1csc(N)n1 (stereo not drawn) | -1.44
CN1CCCc2c1nc1c(c2N)CCCC1 | 23
